Measurements as given in patent US20030134859A1 (SANKYO COMPANY, LIMITED, priority 2000, published 2003).
Counter-ions that a name gives are not always drawn.

Key:
[1] = test system: TNF-α production; assay: Inhibitory activity against cytokine (TNF-α) production in LPS-stimulated RAW264.7 cells; assay type: cell-based, mouse; settings: 1 μM test compound, LPS 10 ng/mL; for inhibition at 1 µM: Mus musculus, RAW264.7, 15 h; for Inhibitory Activity (%) against TNF-α production: 15 hr
Summary of the method: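 Mouse RAW264.7 macrophages (5,000 cells/well) stimulated with 10 ng/mL LPS (final) and treated with test compound at 1 μM final for 15 h at 37 °C. Supernatant mouse TNF-α measured by ELISA; % inhibition = 100−(A−B)/(C−B)×100, using unstimulated and LPS-only controls.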

[2] = test system: leptin production; assay: Enhancing activity for leptin production in adipocytes (ELISA); assay type: cell-based, rat; settings: leptin concentration as % of control group; for activity at 0.001 µM / activity at 0.01 µM / activity at 0.1 µM / activity at 1 µM: Rattus norvegicus, Adipocyte, 24 h, read-out: Facilitating activity to produce leptin; for activity at 0.001 µM: 1 nm; for Facilitating activity to produce leptin: 24 hr
Summary of the method: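 Leptin release, quantified by rat leptin ELISA, expressed as percent of 0.1% DMSO control after 24 h at 37 °C. Cells were floating adipocytes isolated by collagenase digestion of epididymal fat from male 6-week Wistar Imamichi rats; compound tested at 1 nM–1 µM final.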

SMILES	inhibition at 1 µM [1] [%]	activity at 0.01 µM ([2]; 10 nm) [%]	activity at 0.1 µM ([2]; 100 nm) [%]	activity at 1 µM ([2]; 1 μM) [%]	other results
O=C(Nc1ccc(Cl)nc1)c1cc([N+](=O)[O-])ccc1Cl [Example 62, N-(6-Chloropyridin-3-yl)-(2-chloro-5-nitrophenyl)carboxamide]	20.5	115	132		activity at 0.001 µM [2]: 119%
Nc1ccc(-c2ccc(NC(=O)c3cc([N+](=O)[O-])ccc3Cl)cc2)cc1 [Example 88, N-[4-(4-Aminophenyl)phenyl]-(2-chloro-5-nitrophenyl)carboxamide mono-hydrochloride]	28		119	115	
CS(=O)(=O)Nc1ccc(-c2ccc(NC(=O)c3cc([N+](=O)[O-])ccc3Cl)cc2)cc1 [Example 93, N-[4-[4-(Methanesulfonylamino)phenyl]phenyl]-(2-chloro-5-nitrophenyl)carboxamide]	15.6			114	
Cc1ccc(S(=O)(=O)Nc2ccc(-c3ccc(NC(=O)c4cc([N+](=O)[O-])ccc4Cl)cc3)cc2)cc1 [Example 94, N-[4-[4-(4-Toluenesulfonylamino)phenyl]phenyl]-(2-chloro-5-nitrophenyl)carboxamide]	34.8		110	116	
CC(=O)Nc1ccc(-c2ccc(NC(=O)c3cc([N+](=O)[O-])ccc3Cl)cc2)cc1 [Example 118, N-[4-(4-Acetylaminophenyl)phenyl]-(2-chloro-5-nitrophenyl)carboxamide]	16.4	115	127	134	activity at 0.001 µM [2]: 114%
Cc1ccc(C(=O)Nc2nc3ccc(NC(=O)c4cc([N+](=O)[O-])ccc4Cl)cc3s2)cc1 [Example 149, N-[2-(4-Methylbenzoylamino)benzothiazol-6-yl]-(2-chloro-5-nitrophenyl)carboxamide]	18.8		111	117	
CCCN(CCC)c1ccc(NC(=O)c2cc([N+](=O)[O-])ccc2Cl)cc1 [Example 182, N-[4-(N,N-Dipropylamino)phenyl]-(2-chloro-5-nitrophenyl)carboxamide]	32.8	110	112		
O=C(Nc1ccc(N2CCN(C(=O)c3ccccc3)CC2)cc1)c1cc([N+](=O)[O-])ccc1Cl [Example 184, N-[4-(4-Benzoylpiperazin-1-yl)phenyl]-(2-chloro-5-nitrophenyl)carboxamide]	15	122	123		
CCCCCCN(CC)c1ccc(NC(=O)c2cc([N+](=O)[O-])ccc2Cl)cc1 [Example 188, N-[4-(N-Ethyl-N-hexylamino)phenyl]-(2-chloro-55 nitrophenyl)carboxamide]	24.2				activity at 0.001 µM [2]: 110%
Nc1ccc(-c2ccc(NC(=O)c3cc([N+](=O)[O-])ccc3Cl)cc2)cc1 [Example 192, N-[4-(4-Aminophenyl)phenyl]-(2-chloro-5-nitrophenyl)carboxamide]		122			Inhibitory Activity (%) against TNF-α production ([1]; 1 µM): 27.9%; Facilitating activity to produce leptin ([2]; 1 μM): 112.1%; Facilitating activity to produce leptin ([2]; 100 nm): 121.7%
CCCCNc1ccc(-c2ccc(NC(=O)c3cc([N+](=O)[O-])ccc3Cl)cc2)cc1 [Example 203, N-[4-[4-(N-Butylamiino)phenyl]phenyl]-(2-chloro-5-nitrophenyl)carboxamide]					Inhibitory Activity (%) against TNF-α production [1]: 27.1%; Facilitating activity to produce leptin ([2]; 1 μM): 133.9%; Facilitating activity to produce leptin ([2]; 10 nm): 134.6%; Facilitating activity to produce leptin ([2]; 100 nm): 124.8%
CCCNc1ccc(-c2ccc(NC(=O)c3cc([N+](=O)[O-])ccc3Cl)cc2)cc1 [Example 204, N-[4-[4-(N-Propylamino)phenyl]phenyl]-(2-chloro-5-nitrophenyl)carboxamide]	32.7	129	143	133	
CCNc1ccc(-c2ccc(NC(=O)c3cc([N+](=O)[O-])ccc3Cl)cc2)cc1 [Example 205, N-[4-[4-(N-Ethylamino)phenyl]phenyl]-(2-chloro-5-nitrophenyl)carboxamide]	34.9	123	123	120	
CCCCCN(CCCC)c1ccc(-c2ccc(NC(=O)c3cc([N+](=O)[O-])ccc3Cl)cc2)cc1 [Example 206, N-[4-[4-(N-Butyl-N-pentylamino)phenyl]phenyl]-(2-chloro-5-nitrophenyl)carboxamide]	27.5		112	119	
CCCCN(CCCC)c1ccc(-c2ccc(NC(=O)c3cc([N+](=O)[O-])ccc3Cl)cc2)cc1 [Example 207, N-[4-[4-(N,N-Dibutylamino)phenyl]phenyl]-(2-chloro-5-nitrophenyl)carboxamide]	27.1	107	110	116	
CCCCN(CCC)c1ccc(-c2ccc(NC(=O)c3cc([N+](=O)[O-])ccc3Cl)cc2)cc1 [Example 208, N-[4-[4-(N-Butyl-N-propylamino)phenyl]phenyl]-(2-chloro-5-nitrophenyl)carboxamide]	26.3		111		
CCCCN(CC)c1ccc(-c2ccc(NC(=O)c3cc([N+](=O)[O-])ccc3Cl)cc2)cc1 [Example 209, N-[4-[4-(N-Butyl-N-ethylamino)phenyl]phenyl]-(2-chloro-5-nitrophenyl)carboxamide]	26.9		111	117	
CCCN(CC)c1ccc(-c2ccc(NC(=O)c3cc([N+](=O)[O-])ccc3Cl)cc2)cc1 [Example 212, N-[4-[4-(N-Ethyl-N-propylamino)phenyl]phenyl]-(2-chloro-5-nitrophenyl)carboxamide]	31.2			112	
CCCCCN(CCCCC)c1ccc(-c2ccc(NC(=O)c3cc([N+](=O)[O-])ccc3Cl)cc2)cc1 [Example 214, N-[4-[4-(N,N-Dipentylamino)phenyl]phenyl]-(2-chloro-5-nitrophenyl)carboxamide]	20.1	112	125	125	
CCCCCN(CC)c1ccc(-c2ccc(NC(=O)c3cc([N+](=O)[O-])ccc3Cl)cc2)cc1 [Example 216, N-[4-[4-(N-Ethyl-N-pentylamino)phenyl]phenyl]-(2-chloro-5-nitrophenyl)carboxamide]	30.6	113	112	117	
CCN(CC)c1ccc(-c2ccc(NC(=O)c3cc([N+](=O)[O-])ccc3Cl)cc2)cc1 [Example 217, N-[4-[4-(N,N-Diethylamino)phenyl]phenyl]-(2-chloro-5-nitrophenyl)carboxamide]	28.7	116	117	121	
O=C(Nc1ccc(-c2ccc(NC(=S)Nc3cccc(F)c3)cc2)cc1)c1cc([N+](=O)[O-])ccc1Cl [Example 245, N-[4-[4-[(3-Fluorophenyl)aminothiocarbonylamino]phenyl]phenyl]-(2-chloro-5-nitrophenyl)carboxamide]	34.6	111		111	
